Measured values: US12448371B2, “Inhibitor compounds” (Cincera Therapeutics Pty Ltd, priority 2019, dated 2025)
Where a name gives a salt, the structure may show the parent alone.

Legend:
[1] = system: Connective Tissue Growth Factor (CTGF) gene expression; test: Real time quantitative PCR in TGFβ-stimulated human hepatic stellate cells (LX2) to detect CTGF gene expression; format: cell-based; details: CTGF mRNA in TGFβ-stimulated LX2 cells vs vehicle control; for inhibition at 5 µM: LX-2, 5 μM; for inhibition at 1 µM: LX-2, 1 μM
Method: Real Time Quantitative Polymerase Chain Reaction in Human Hepatic Stellate Cells (LX2) to Detect Connective Tissue Growth Factor (CTGF) Gene Expression The hepatic stellate cell line, LX2 was maintained in DMEM (LifeTechnologies) with 2% heat-inactivated FBS, 100U penicillin (LifeTechnologies), 0.1 mg/mL streptomycin (LifeTechnologies), and 2 mM L-glutamine (LifeTechnologies) at 37° C. with 5% CO2. Cells were seeded into 6-well plates (200,000 cells per well, 2 mLs media) and grown overnight. The cells were changed to 2 mLs 0.5% FBS media for 24 hours prior to treatment. Treatments were added in 2 mLs fresh 0.5% FBS media (vehicle control, long/mL TGFβ alone (R&D Systems), 10 ng/mL TGFβ+inhibitors) and incubated for 24 hours. […] RNA was extracted using Qiagen RNeasy kit (cat #74104), according to manufacturer's instructions. RNA (1 μg) was used to generate cDNA using the Qiagen Quantitect Reverse Transcription Kit (cat #205311), and stored at -20° C. cDNA was diluted (1:25 final) and combined with Sybr Green (Qiagen cat #204143), forward and reverse primers (50 ng each) and run on Real Time PCR Thermocycler machine (RG-6000, Corbett) with the following PCR conditions: Hold 1: 50° C. for 2 min; Hold 2: 95° C. for 15 min; Cycling: 45 cycles of: 95° C. for 30 sec, 58° C. for 21 sec, 72° C. for 15 sec, Hold 3: 72° C. for 30 sec, Melt: 72° C. to 99° C. GAPDH primers (Forward: [NT]; Reverse: [NT] primers (Forward: [NT]; Reverse: [NT] primers available from Origene, cat #HP205671)].

Des1 (h) = molecular target: T1, Des1 (h) (Homo sapiens, UniProt O15121); test: Measurement of Dihydroceramide Desaturase-1 (Des-1) activity in intact Jurkat cells labeled with DhCer-C6-NBD (HPLC); format: cell-based; details: for IC50: intact Jurkat cells, given as concentration range, or <X / >X if measured at one concentration X only, read-out: Des1 (h) Jurkat IC50
T1 construct: endogenous in cells; host or cells: parental Jurkat cells
T1 sequence (O15121 1-323): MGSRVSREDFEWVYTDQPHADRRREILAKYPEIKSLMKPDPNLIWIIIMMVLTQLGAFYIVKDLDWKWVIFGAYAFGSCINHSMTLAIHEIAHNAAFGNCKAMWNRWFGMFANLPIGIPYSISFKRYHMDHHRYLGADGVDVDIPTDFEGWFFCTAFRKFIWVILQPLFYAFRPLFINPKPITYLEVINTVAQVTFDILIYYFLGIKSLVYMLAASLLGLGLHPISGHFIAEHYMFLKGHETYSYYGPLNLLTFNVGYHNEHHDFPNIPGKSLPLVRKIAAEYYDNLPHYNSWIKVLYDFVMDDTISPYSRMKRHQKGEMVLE
Method: Measurement of Dihydroceramide Desaturase-1 (Des-1) Activity
Compounds were assessed for Des-1 inhibitory activity. Measurement of Des1 activity was performed by HPLC using intact Jurkat cells labeled with DhCer-C6-NBD as described previously (Munoz-Olaya, J. M. et al. ChemMedChem 2008, 3, 946-953) with modifications to enhance sensitivity and reproducibility. These modifications included the use of parental Jurkat cells, 0.5% serum in the culture media, and cell harvesting via centrifugation at 500×g to maximise ceramide extraction. Extracted samples (50 ul) were analysed on a Waters HPLC coupled to a fluorescence detector using a 30 cm C18 reverse-phase column eluted with 1 ml/min 20% H2O and 80% acetonitrile, both with a 0.1% of trifluoroacetic acid. NBD-labelled substrate and product were quantitated with an excitation and emission wavelengths of 465 nm and 530 nm, respectively.

Row | SMILES | inhibition at 5 µM [1] | IC50 (Des1 (h)) | inhibition at 1 µM (Des1 (h); Jurkat cells, 1 μM) | further results
1 | O=C(NCC(O)CO)c1ccc(Nc2ncc(-c3ccc(Cl)cn3)o2)cn1 (racemic) [Compound 116, rac-5-((5-(5-Chloropyridin-2-yl)oxazol-2-yl)amino)-N-(2,3-dihydroxypropyl)picolinamide hydrochloride] | 70 to 80% | < 1000 nM |  | 
2 | N/C(=N\O)c1ccc(Nc2ncc(-c3ccc(Cl)cn3)o2)cn1 [Compound 90, 5-((5-(5-Chloropyridin-2-yl)oxazol-2-yl)amino)-N′-hydroxypicolinimidamide] | > 90% | < 1000 nM |  | 
3 | N/C(=N\O)c1ccc(Nc2ncc(-c3ccc(OC(F)(F)F)cn3)o2)cn1 [Compound 99, N′-Hydroxy-5-((5-(5-(trifluoromethoxy)pyridin-2-yl)oxazol-2-yl)amino)picolinimidamide] |  | > 1000 nM | 47% | inhibition at 1 µM [1]: 1 to 10%; inhibition at 10 µM ([1]; LX-2, 10 μM): 70 to 80%
4 | N/C(=N/O)c1cnc(Nc2ncc(-c3ccc(Cl)cn3)o2)cn1 [Compound 102, 5-((5-(5-Chloropyridin-2-yl)oxazol-2-yl)amino)-N′-hydroxypyrazine-2-carboximidamide] | 70 to 80% | < 1000 nM |  | 
5 | N/C(=N/O)c1ccc(Nc2cnn(-c3ccc(Cl)cn3)c2)cn1 [Compound 103, 5-((1-(5-Chloropyridin-2-yl)-1H-pyrazol-4-yl)amino)-N′-hydroxypicolinimidamide] | 70 to 80% | < 1000 nM |  | 
6 | N/C(=N\O)c1cnc(Nc2ncn(-c3ccc(C(F)(F)F)cc3)n2)cn1 [Compound 106, N′-Hydroxy-5-((1-(4-(trifluoromethyl)phenyl)-1H-1,2,4-triazol-3-yl)amino)pyrazine-2-carboximidamide] |  | < 1000 nM |  | inhibition at 1 µM [1]: 30 to 40%
7 | N/C(=N/O)c1ccc(Nc2ncn(-c3ccc(C(F)(F)F)cn3)n2)cn1 [Compound 107, N′-Hydroxy-5-((1-(5-(trifluoromethyl)pyridin-2-yl)-1H-1,2,4-triazol-3-yl)amino)picolinimidamide] | > 90% | < 1000 nM |  | 
8 | N/C(=N\O)c1cnc(Nc2ncn(-c3ccc(C(F)(F)F)cn3)n2)cn1 [Compound 108, N′-Hydroxy-5-((1-(5-(trifluoromethyl)pyridin-2-yl)-1H-1,2,4-triazol-3-yl)amino)pyrazine-2-carboximidamide] | 40 to 50% | < 1000 nM |  | 
9 | Cn1nc(Nc2ccc(/C(N)=N/O)nc2)cc1-c1ccc(C(F)(F)F)cn1 [Compound 109, N′-Hydroxy-5-((1-methyl-5-(5-(trifluoromethyl)pyridin-2-yl)-1H-pyrazol-3-yl)amino)picolinimidamide] | > 90% | < 1000 nM |  | 
10 | N/C(=N\O)c1cnc(Nc2ccn(-c3ccc(C(F)(F)F)cc3)n2)cn1 [Compound 111, N′-Hydroxy-5-((1-(4-(trifluoromethyl)phenyl)-1H-pyrazol-3-yl)amino)pyrazine-2-carboximidamide] | > 90% | < 1000 nM |  | 
11 | N/C(=N\O)c1cnc(Nc2ccn(-c3ccc(C(F)(F)F)cn3)n2)cn1 [Compound 112, N′-Hydroxy-5-((1-(5-(trifluoromethyl)pyridin-2-yl)-1H-pyrazol-3-yl)amino)pyrazine-2-carboximidamide] |  | < 1000 nM |  | inhibition at 1 µM [1]: > 90%
12 | N/C(=N\O)c1ccc(Nc2cnn(-c3ccc(C(F)(F)F)cc3)c2)cn1 [Compound 113, N′-Hydroxy-5-((1-(4-(trifluoromethyl)phenyl)-1H-pyrazol-4-yl)amino)picolinimidamide] | > 90% | < 1000 nM |  | 
13 | N/C(=N/O)c1ccc(Nc2ncc(-c3cnc(C(F)(F)F)cn3)o2)cn1 [Example 66, N′-Hydroxy-5-((5-(5-(trifluoromethyl)pyrazin-2-yl)oxazol-2-yl)amino)picolinimidamide] |  | > 1000 nM | 47% | 
14 | Oc1ccc(Nc2nnc(-c3ccc(OC(F)(F)F)cc3)o2)nc1 [Example 67, 6-((5-(4-(Trifluoromethoxy)phenyl)-1,3,4-oxadiazol-2-yl)amino)pyridin-3-ol] |  | < 1000 nM |  | 
15 | O=c1cc(Nc2ncc(-c3ccc(C(F)(F)F)cn3)o2)ccn1O [Example 68, 1-Hydroxy-4-((5-(5-(trifluoromethyl)pyridin-2-yl)oxazol-2-yl)amino)pyridin-2(1H)-one] |  | < 1000 nM |  | 
16 | Cl.N=C(NO)c1ccc(Nc2nnc(-c3ccc(C(F)(F)F)cn3)o2)cn1 [Example 69, N′-Hydroxy-5-((5-(5-(trifluoromethyl)pyridin-2-yl)-1,3,4-oxadiazol-2-yl)amino)picolinimidamide] |  | > 1000 nM |  | % inhibition of Des1 at 1 μM (Des1 (h); Jurkat cells, 1 μM): no inhibition
17 | N/C(=N/O)c1ccc(Nc2nnc(-c3ccc(Cl)cn3)o2)cn1 [Example 71, 5-((5-(5-Chloropyridin-2-yl)-1,3,4-oxadiazol-2-yl)amino)-N′-hydroxypicolinimidamide] |  | > 1000 nM | 13% | 
18 | Cn1nc(-c2ccc(C(F)(F)F)cn2)cc1Nc1ccc(/C(N)=N\O)nc1 [Example 76, N′-Hydroxy-5-((1-methyl-3-(5-(trifluoromethyl)pyridin-2-yl)-1H-pyrazol-5-yl)amino)picolinimidamide] |  | > 1000 nM | 8% | 
19 | Cn1nc(-c2ccc(C(F)(F)F)cc2)cc1Nc1ccc(/C(N)=N\O)nc1 [Example 77, N′-Hydroxy-5-((1-methyl-3-(4-(trifluoromethyl)phenyl)-1H-pyrazol-5-yl)amino)picolinimidamide] |  | > 1000 nM | 47% | 
20 | N/C(=N\O)c1ccc(Nc2nc(-c3ccc(Cl)cc3)no2)cn1 [Example 78, 5-((3-(4-chlorophenyl)-1,2,4-oxadiazol-5-yl)amino)-N′-hydroxypicolinimidamide] |  | < 1000 nM |  | 
21 | N/C(=N\O)c1cnc(Nc2nc(-c3ccc(Cl)cc3)no2)cn1 [Example 79, 5-((3-(4-chlorophenyl)-1,2,4-oxadiazol-5-yl)amino)-N′-hydroxypyrazine-2-carboximidamide] |  | < 1000 nM |  | 
22 | N/C(=N\O)c1ccc(Nc2nc(-c3ccc(Cl)cn3)no2)cn1 [Example 80, 5-((3-(5-Chloropyridin-2-yl)-1,2,4-oxadiazol-5-yl)amino)-N′-hydroxypicolinimidamide] |  | > 1000 nM | 24% | 
23 | N/C(=N\O)c1cnc(Nc2nc(-c3ccc(Cl)cn3)no2)cn1 [Example 81, 5-((3-(5-Chloropyridin-2-yl)-1,2,4-oxadiazol-5-yl)amino)-N′-hydroxypyrazine-2-carboximidamide] |  | > 1000 nM | 7% | 
24 | N/C(=N\O)c1cnc(Nc2nc(-c3ccc(C(F)(F)F)cc3)no2)cn1 [Example 83, N′-Hydroxy-5-((3-(4-(trifluoromethyl)phenyl)-1,2,4-oxadiazol-5-yl)amino)pyrazine-2-carboximidamide] |  | < 1000 nM |  | 
25 | N/C(=N\O)c1cnc(Nc2nc(-c3ccc(C(F)(F)F)cn3)no2)cn1 [Example 85, N′-hydroxy-5-((3-(5-(trifluoromethyl)pyridin-2-yl)-1,2,4-oxadiazol-5-yl)amino)pyrazine-2-carboximidamide] |  | > 1000 nM | 15% | 
26 | N/C(=N\O)c1ccc(Nc2nc(-c3ccc(OC(F)(F)F)cn3)no2)cn1 [Example 88, N′-hydroxy-5-((3-(5-(trifluoromethoxy)pyridin-2-yl)-1,2,4-oxadiazol-5-yl)amino)picolinimidamide] |  | > 1000 nM | 29% | 
